# Ends that are not written are not given here.
# Test system: MDA-MB-231 tumors
# Test: MRI of tumor vascular volume and permeability surface-area product
# Assay type: in vivo, mice
# Conditions: vs control
# Method: MRI of vascular volume and permeability surface-area product (PSP) were determined as follows. Mice with volume-matched tumors were treated with SP2024 or vehicle and imaged 24 h post treatment. The mice were anesthetized and the tail vein was catheterized before placing the animal in the spectrometer. All imaging studies were performed on a 4.7 T Bruker Avance spectrometer, as previously described (Raman et al., 2006; Bhujwalla et al., 2001) using a home-built solenoid coil placed around the tumor. Briefly, multislice relaxation rate (1/T1) maps were obtained by a saturation recovery method combined with fast T1 SNAPSHOT-FLASH imaging (flip angle of 10°, echo time of 2 ms). […] The detectable areas of vascular volume and permeability as well as absolute values of vascular volume and permeability were analyzed. […] Volume fractions of the regions were determined using the histogram analysis of the volume data. […] Statistical significance (p<0.05) within each experiment using the independent replicates was assessed using standard statistical assessments such as Student's t-test and ANOVA accompanied by Dunnett's test if different sets of data were compared to one group.
substance,measurement,value
LRRFSTMPFMFININNVINF-NH2 [SP2024],relative vascular volume,reduced relative vascular volume
same,tumor permeability-surface area product,reduced tumor permeability-surface area product

# Reference: patent publication US9056923B2, “Mimetic peptides derived from collagen type IV and their use for treating angiogenesis- and lymphagiogenesis-dependent diseases” (THE JOHNS HOPKINS UNIVERSITY, priority 2010, dated 2015)
